Experiments:
Assay in all cases: Example B2 herbicidal action, post-emergence, pots in glasshouse, damage score 0-10
Format in all cases: in vivo
Conditions in all cases: application post-emergence, rate 1000 g/ha, evaluated after 13 days
Setaria faberi = system: Setaria faberi
How it was run: (§1)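 Seedlings grown 8 days in a controlled glasshouse received a foliar spray of the compound formulated in 50:50 acetone/water plus 0.5% Tween 20; plant damage was assessed 13 days afterward.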

Amaranthus retroflexus = system: Amaranthus retroflexus
How it was run: as §1

Ipomea hederaceae = system: Ipomea hederaceae
How it was run: as §1

Solanum nigrum = system: Solanum nigrum
How it was run: as §1

Echinochloa crus-galli = system: Echinochloa crus-galli
How it was run: as §1

SMILES | SETFA damage score (10=total damage to plant; 0=no damage to plant) (Setaria faberi) | AMARE damage score (10=total damage to plant; 0=no damage to plant) (Amaranthus retroflexus) | IPOHE damage score (10=total damage to plant; 0=no damage to plant) (Ipomea hederaceae) | SOLNI damage score (10=total damage to plant; 0=no damage to plant) (Solanum nigrum) | ECHCG damage score (10=total damage to plant; 0=no damage to plant) (Echinochloa crus-galli)
CCSC(=O)OC1=C(c2c(Cl)ccc(Cl)c2C(F)(F)F)S(=O)(=O)N(CC(F)F)c2nccnc21 [Compound C103] | 6 | 8 | 6 | 9 | 7
CCN1c2nccnc2C(O)=C(c2cc(F)c(Cl)cc2Cl)S1(=O)=O [Compound D23] | 2 | 8 | 9 | 8 | 2
CCN1c2nccnc2C(OC(=O)C(C)C)=C(c2cccc(C(F)(F)F)c2Cl)S1(=O)=O [Compound C75] | 0 | 5 | 2 | 6 | 1
CCN1c2nccnc2C(OC(=O)C(C)C)=C(c2ccccc2SC(F)(F)F)S1(=O)=O [Compound C19, isobutyric acid 1-ethyl-2,2-dioxo-3-(2-trifluoromethyl-sulfanyl-phenyl)-1,2-dihydro-2-λ-6-thia-1,5,8-triaza-naphthalen-4-yl ester] | 0 | 9 | 8 | 6 | 4
CCSC(=O)OC1=C(c2ccccc2I)S(=O)(=O)N(CC(F)F)c2nccnc21 [Compound C82] | 8 | 10 | 10 | 10 | 9
O=S1(=O)C(c2ccccc2Br)=C(O)c2nccnc2N1CC(F)F [Compound D18] | 5 | 10 | 10 | 10 | 4
CC(C)(C)C(=O)OC1=C(c2ccccc2I)S(=O)(=O)N(CC(F)F)c2nccnc21 [Compound C81] | 7 | 10 | 10 | 10 | 8
CSC(=O)OC1=C(c2c(Cl)ccc(Cl)c2Cl)S(=O)(=O)N(CC(F)F)c2nccnc21 [Compound C130] | 7 | 10 | 10 | 10 | 8
CC(C)C(=O)OC1=C(c2ccccc2C#N)S(=O)(=O)N(CC(F)F)c2nccnc21 [Compound C128] | 0 | 7 | 8 | 9 | 0
CC(C)C(=O)OC1=C(c2cc(C(F)(F)F)ccc2Cl)S(=O)(=O)N(C)c2nccnc21 [Compound C90] | 1 | 8 | 9 | 10 | 2
COCN1c2nccnc2C(OC(=O)C(C)(C)C)=C(c2ccc(Cl)cc2Cl)S1(=O)=O [Compound C11] | 4 | 1 | 2 | 6 | 3
CC(C)C(=O)OC1=C(c2ccccc2Br)S(=O)(=O)N(CC(F)F)c2nccnc21 [Compound C39] | 4 | 9 | 9 | 10 | 4
O=S1(=O)C(c2cc(Cl)ccc2C(F)(F)F)=C(O)c2nccnc2N1CC(F)F [Compound D53] | 6 | 8 | 7 | 10 | 6
O=S1(=O)C(c2ccc(Cl)cc2Cl)=C(O)c2nccnc2N1CC(F)(F)F [Compound D51] | 1 | 7 | 7 | 8 | 2
CCSC(=O)OC1=C(c2cc(C(F)(F)F)ccc2Br)S(=O)(=O)N(CC(F)F)c2nccnc21 [Compound C60] | 1 | 10 | 10 | 10 | 7
CC(C)C(=O)OC1=C(c2cc(C(F)(F)F)ccc2Cl)S(=O)(=O)N(CC(F)F)c2nccnc21 [Compound C91] | 3 | 9 | 10 | 9 | 6
